According to patent publication US5001118A, “Method for preventing senescence and increasing bone mass” (priority 1986, dated 1991):

Experiments:
Assay type in all cases: in vivo, mouse (ICR type)
ICR type mice [1] = experiment: General inspection of blood, daily oral administration; design: key: .dwnarw.: Decrease below control; →: No difference from control; .uparw.: Increase above control
Experimental: (§1) Solutions obtained by dissolving the present substance, 24R,25-(OH)2 -D3 in a prescribed concentration in triglyceride of a fatty acid of 8 to 10 carbon atoms containing 1% of ethanol were administered respectively, orally, forcedly and daily to three male-groups and three female-groups of ICR type mice 5 weeks old at dosages of 10, 100, and 1,000 μg/kg.day. The results are compared below with respect to the following items with those obtained of the male- and female-groups using only the solvent without the present substance.

ICR type mice [2] = experiment: Weight of internal organs, daily oral administration; design: key: .dwnarw.: Decrease below control; →: No difference from control; .uparw.: Increase above control
Experimental: as §1

ICR type mice [3] = experiment: Histopathological inspection of internal organs (haematoxylin eosine); conditions: male and female ICR mice, 10, 100, and 1,000 μg/kg.day orally
Experimental: as §1
The following internal organs were fixed with 10% formalin, tinted with haematoxylin eosine dye, and subjected to histopathological inspection.
Brain, heart, lung, liver, kidney, adrenal gland, spleen, pancreas, thyroid gland, pituitary gland, thymus, mesentery lymphoglandia, testis, ovary, uterus, stomach, small intestines (jejunum, ileum, and duodenum), large intestines (colon and caecum), orb, submaxillary gland, urinary bladder, dorsal skin, muscle, sternum, sternal medulla, femur, and femoral medulla.

With `C=C1CC[C@H](O)C/C1=C/C=C1\CCC[C@]2(C)[C@@H]([C@H](C)CC[C@@H](O)C(C)(C)O)CC[C@@H]12` [24R,25-(OH)2 -D3] the Amount of hemoglobin (ICR type mice [1]; female, group IV, 10 μm/kg) was “→”, the Hematocrit value (ICR type mice [1]; female, group IV, 10 μm/kg) was “→” and the “Number of red blood cells” value (ICR type mice [1]; female, group IV, 10 μm/kg) was “→”. For the same molecule, the “Number of white blood cells” value (ICR type mice [1]; female, group IV, 10 μm/kg) was “→”, the Amount of hemoglobin (ICR type mice [1]; female, group V, 100 μm/kg) was “→” and the Hematocrit value (ICR type mice [1]; female, group V, 100 μm/kg) was “→”. For the same molecule, the “Number of red blood cells” value (ICR type mice [1]; female, group V, 100 μm/kg) was “→”, the “Number of white blood cells” value (ICR type mice [1]; female, group V, 100 μm/kg) was “→” and the Amount of hemoglobin (ICR type mice [1]; female, group VI, 1000 μg/kg) was “→”. For the same molecule, the Hematocrit value (ICR type mice [1]; female, group VI, 1000 μg/kg) was “→”, the “Number of red blood cells” value (ICR type mice [1]; female, group VI, 1000 μg/kg) was “→” and the “Number of white blood cells” value (ICR type mice [1]; female, group VI, 1000 μm/kg) was “→”. For the same molecule, the Amount of hemoglobin (ICR type mice [1]; male, group I, 10 μm/kg) was “→”, the Hematocrit value (ICR type mice [1]; male, group I, 10 μm/kg) was “→” and the “Number of red blood cells” value (ICR type mice [1]; male, group I, 10 μm/kg) was “→”. For the same molecule, the “Number of white blood cells” value (ICR type mice [1]; male, group I, 10 μm/kg) was “→”, the Amount of hemoglobin (ICR type mice [1]; male, group II, 100 μm/kg) was “→” and the Hematocrit value (ICR type mice [1]; male, group II, 100 μm/kg) was “→”. For the same molecule, the “Number of red blood cells” value (ICR type mice [1]; male, group II, 100 μm/kg) was “→”, the “Number of white blood cells” value (ICR type mice [1]; male, group II, 100 μm/kg) was “→” and the Amount of hemoglobin (ICR type mice [1]; male, group III, 1000 μg/kg) was “→”. The Hematocrit value (ICR type mice [1]; male, group III, 1000 μg/kg) was “→”, the “Number of red blood cells” value (ICR type mice [1]; male, group III, 1000 μg/kg) was “→” and the “Number of white blood cells” value (ICR type mice [1]; male, group III, 1000 μm/kg) was “→”. For the same molecule, the “Weight of adrenal gland” value (ICR type mice [2]; female, 10 μg/kg) was “→”, the Weight of brain (ICR type mice [2]; female, 10 μg/kg) was “→” and the Weight of heart (ICR type mice [2]; female, 10 μg/kg) was “→”. For the same molecule, the Weight of kidney (ICR type mice [2]; female, 10 μg/kg) was “→”, the Weight of liver (ICR type mice [2]; female, 10 μg/kg) was “→” and the Weight of lung (ICR type mice [2]; female, 10 μg/kg) was “→”. The Weight of ovary (ICR type mice [2]; female, 10 μg/kg) was “→”, the “Weight of pituitary gland” value (ICR type mice [2]; female, 10 μg/kg) was “→” and the Weight of spleen (ICR type mice [2]; female, 10 μg/kg) was “→”. The “Weight of thymus gland” value (ICR type mice [2]; female, 10 μg/kg) was “→”, the Weight of uterus (ICR type mice [2]; female, 10 μg/kg) was “→” and the “Weight of adrenal gland” value (ICR type mice [2]; female, 100 μg/kg) was “→”. For the same molecule, the Weight of brain (ICR type mice [2]; female, 100 μg/kg) was “→”, the Weight of heart (ICR type mice [2]; female, 100 μg/kg) was “→” and the Weight of kidney (ICR type mice [2]; female, 100 μg/kg) was “→”. The Weight of liver (ICR type mice [2]; female, 100 μg/kg) was “→”, the Weight of lung (ICR type mice [2]; female, 100 μg/kg) was “→” and the Weight of ovary (ICR type mice [2]; female, 100 μg/kg) was “→”. For the same molecule, the “Weight of pituitary gland” value (ICR type mice [2]; female, 100 μg/kg) was “→”, the Weight of spleen (ICR type mice [2]; female, 100 μg/kg) was “→” and the “Weight of thymus gland” value (ICR type mice [2]; female, 100 μg/kg) was “→”. For the same molecule, the Weight of uterus (ICR type mice [2]; female, 100 μg/kg) was “→”, the “Weight of adrenal gland” value (ICR type mice [2]; female, 1000 μg/kg) was “→” and the Weight of brain (ICR type mice [2]; female, 1000 μg/kg) was “→”. The Weight of heart (ICR type mice [2]; female, 1000 μg/kg) was “→”, the Weight of kidney (ICR type mice [2]; female, 1000 μg/kg) was “→” and the Weight of liver (ICR type mice [2]; female, 1000 μg/kg) was “→”. The Weight of lung (ICR type mice [2]; female, 1000 μg/kg) was “→”, the Weight of ovary (ICR type mice [2]; female, 1000 μg/kg) was “→” and the “Weight of pituitary gland” value (ICR type mice [2]; female, 1000 μg/kg) was “→”. The Weight of spleen (ICR type mice [2]; female, 1000 μg/kg) was “→”, the “Weight of thymus gland” value (ICR type mice [2]; female, 1000 μg/kg) was “→” and the Weight of uterus (ICR type mice [2]; female, 1000 μg/kg) was “→”. For the same molecule, the “Weight of adrenal gland” value (ICR type mice [2]; male, 10 μg/kg) was “→”, the Weight of brain (ICR type mice [2]; male, 10 μg/kg) was “→” and the Weight of heart (ICR type mice [2]; male, 10 μg/kg) was “→”. The Weight of kidney (ICR type mice [2]; male, 10 μg/kg) was “→”, the Weight of liver (ICR type mice [2]; male, 10 μg/kg) was “→” and the Weight of lung (ICR type mice [2]; male, 10 μg/kg) was “→”. The “Weight of pituitary gland” value (ICR type mice [2]; male, 10 μg/kg) was “→”, the Weight of spleen (ICR type mice [2]; male, 10 μg/kg) was “→” and the Weight of testis (ICR type mice [2]; male, 10 μg/kg) was “→”. The “Weight of thymus gland” value (ICR type mice [2]; male, 10 μg/kg) was “→”, the “Weight of adrenal gland” value (ICR type mice [2]; male, 100 μg/kg) was “→” and the Weight of brain (ICR type mice [2]; male, 100 μg/kg) was “→”. For the same molecule, the Weight of heart (ICR type mice [2]; male, 100 μg/kg) was “→”, the Weight of kidney (ICR type mice [2]; male, 100 μg/kg) was “→” and the Weight of liver (ICR type mice [2]; male, 100 μg/kg) was “→”. The Weight of lung (ICR type mice [2]; male, 100 μg/kg) was “→”, the “Weight of pituitary gland” value (ICR type mice [2]; male, 100 μg/kg) was “→” and the Weight of spleen (ICR type mice [2]; male, 100 μg/kg) was “→”. The Weight of testis (ICR type mice [2]; male, 100 μg/kg) was “→”, the “Weight of thymus gland” value (ICR type mice [2]; male, 100 μg/kg) was “→” and the “Weight of adrenal gland” value (ICR type mice [2]; male, 1000 μg/kg) was “→”. The Weight of brain (ICR type mice [2]; male, 1000 μg/kg) was “→”, the Weight of heart (ICR type mice [2]; male, 1000 μg/kg) was “→” and the Weight of kidney (ICR type mice [2]; male, 1000 μg/kg) was “→”. The Weight of liver (ICR type mice [2]; male, 1000 μg/kg) was “→”, the Weight of lung (ICR type mice [2]; male, 1000 μg/kg) was “→” and the “Weight of pituitary gland” value (ICR type mice [2]; male, 1000 μg/kg) was “→”. For the same molecule, the Weight of spleen (ICR type mice [2]; male, 1000 μg/kg) was “→”, the Weight of testis (ICR type mice [2]; male, 1000 μg/kg) was “→” and the “Weight of thymus gland” value (ICR type mice [2]; male, 1000 μg/kg) was “→”. For the same molecule, the “histopathological inspection of internal organs” value (ICR type mice [3]) was “no discernible abnormality”.
